In patent publication US12281080B2, “Quinoline-based compounds and methods of inhibiting CDK8/19” (University of South Carolina, priority 2018, dated 2025):

Tests used:
ABL1-nonphosphorylated = ABL1-nonphosphorylated (Homo sapiens (Human), UniProt P00519); test: KINOMEscan scanMAX; type: binding; settings: 2000 nM; read-out: Percent Control
BRSK2 = BRSK2 (Homo sapiens (Human), UniProt Q8IWQ3); test: KINOMEscan scanMAX; type: binding; settings: 2000 nM; read-out: Percent Control
CAMK1G = CAMK1G (Homo sapiens (Human), UniProt Q96NX5); test: KINOMEscan scanMAX; type: binding; settings: 2000 nM; read-out: Percent Control
Sequence of CAMK1G (Q96NX5 whole entry): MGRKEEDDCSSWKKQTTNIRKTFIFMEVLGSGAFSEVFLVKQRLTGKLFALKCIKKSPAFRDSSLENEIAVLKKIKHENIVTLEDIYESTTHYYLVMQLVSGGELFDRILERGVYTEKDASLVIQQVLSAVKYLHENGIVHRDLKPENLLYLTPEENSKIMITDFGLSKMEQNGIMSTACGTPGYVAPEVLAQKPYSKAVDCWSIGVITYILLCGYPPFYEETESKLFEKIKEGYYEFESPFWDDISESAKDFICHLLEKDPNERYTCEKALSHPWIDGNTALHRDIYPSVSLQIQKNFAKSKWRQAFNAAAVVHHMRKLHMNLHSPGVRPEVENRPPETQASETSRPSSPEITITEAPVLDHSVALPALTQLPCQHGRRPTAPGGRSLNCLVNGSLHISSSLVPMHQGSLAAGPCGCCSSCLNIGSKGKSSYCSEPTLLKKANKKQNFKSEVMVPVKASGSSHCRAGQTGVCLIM

CSNK1G1 = CSNK1G1 (Homo sapiens (Human), UniProt Q9HCP0); test: KINOMEscan scanMAX; type: binding; settings: 2000 nM; read-out: Percent Control
DAPK1 = DAPK1 (Homo sapiens (Human), UniProt P53355); test: KINOMEscan scanMAX; type: binding; settings: 2000 nM; read-out: Percent Control
DAPK3 = DAPK3 (Homo sapiens (Human), UniProt O43293); test: KINOMEscan scanMAX; type: binding; settings: 2000 nM; read-out: Percent Control
Sequence of DAPK3 (O43293 whole entry): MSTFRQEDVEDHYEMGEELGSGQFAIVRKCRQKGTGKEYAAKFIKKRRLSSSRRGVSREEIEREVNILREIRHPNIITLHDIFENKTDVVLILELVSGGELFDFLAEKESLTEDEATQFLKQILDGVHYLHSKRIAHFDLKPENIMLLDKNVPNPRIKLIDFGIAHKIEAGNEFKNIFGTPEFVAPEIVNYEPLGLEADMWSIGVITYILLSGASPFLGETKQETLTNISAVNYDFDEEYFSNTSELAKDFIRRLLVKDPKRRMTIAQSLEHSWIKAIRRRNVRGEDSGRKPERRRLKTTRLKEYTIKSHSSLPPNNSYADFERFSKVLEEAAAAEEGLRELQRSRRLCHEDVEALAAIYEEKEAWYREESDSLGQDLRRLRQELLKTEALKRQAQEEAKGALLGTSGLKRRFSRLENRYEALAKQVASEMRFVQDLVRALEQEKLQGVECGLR

ERBB2 = ERBB2 (Homo sapiens (Human), UniProt P04626); test: KINOMEscan scanMAX; type: binding; settings: 2000 nM; read-out: Percent Control
ERK2 (MAPK1) = ERK2 (MAPK1) (Homo sapiens (Human), UniProt P28482); test: KINOMEscan scanMAX; type: binding; settings: 2000 nM; read-out: Percent Control
ERK8 (MAPK15) = ERK8 (MAPK15) (Homo sapiens (Human), UniProt Q8TD08); test: KINOMEscan scanMAX; type: binding; settings: 2000 nM; read-out: Percent Control
FES = FES (Homo sapiens (Human), UniProt P07332); test: KINOMEscan scanMAX; type: binding; settings: 2000 nM; read-out: Percent Control
FLT4 = FLT4 (Homo sapiens (Human), UniProt P35916); test: KINOMEscan scanMAX; type: binding; settings: 2000 nM; read-out: Percent Control
Sequence of FLT4 (P35916 25-1363): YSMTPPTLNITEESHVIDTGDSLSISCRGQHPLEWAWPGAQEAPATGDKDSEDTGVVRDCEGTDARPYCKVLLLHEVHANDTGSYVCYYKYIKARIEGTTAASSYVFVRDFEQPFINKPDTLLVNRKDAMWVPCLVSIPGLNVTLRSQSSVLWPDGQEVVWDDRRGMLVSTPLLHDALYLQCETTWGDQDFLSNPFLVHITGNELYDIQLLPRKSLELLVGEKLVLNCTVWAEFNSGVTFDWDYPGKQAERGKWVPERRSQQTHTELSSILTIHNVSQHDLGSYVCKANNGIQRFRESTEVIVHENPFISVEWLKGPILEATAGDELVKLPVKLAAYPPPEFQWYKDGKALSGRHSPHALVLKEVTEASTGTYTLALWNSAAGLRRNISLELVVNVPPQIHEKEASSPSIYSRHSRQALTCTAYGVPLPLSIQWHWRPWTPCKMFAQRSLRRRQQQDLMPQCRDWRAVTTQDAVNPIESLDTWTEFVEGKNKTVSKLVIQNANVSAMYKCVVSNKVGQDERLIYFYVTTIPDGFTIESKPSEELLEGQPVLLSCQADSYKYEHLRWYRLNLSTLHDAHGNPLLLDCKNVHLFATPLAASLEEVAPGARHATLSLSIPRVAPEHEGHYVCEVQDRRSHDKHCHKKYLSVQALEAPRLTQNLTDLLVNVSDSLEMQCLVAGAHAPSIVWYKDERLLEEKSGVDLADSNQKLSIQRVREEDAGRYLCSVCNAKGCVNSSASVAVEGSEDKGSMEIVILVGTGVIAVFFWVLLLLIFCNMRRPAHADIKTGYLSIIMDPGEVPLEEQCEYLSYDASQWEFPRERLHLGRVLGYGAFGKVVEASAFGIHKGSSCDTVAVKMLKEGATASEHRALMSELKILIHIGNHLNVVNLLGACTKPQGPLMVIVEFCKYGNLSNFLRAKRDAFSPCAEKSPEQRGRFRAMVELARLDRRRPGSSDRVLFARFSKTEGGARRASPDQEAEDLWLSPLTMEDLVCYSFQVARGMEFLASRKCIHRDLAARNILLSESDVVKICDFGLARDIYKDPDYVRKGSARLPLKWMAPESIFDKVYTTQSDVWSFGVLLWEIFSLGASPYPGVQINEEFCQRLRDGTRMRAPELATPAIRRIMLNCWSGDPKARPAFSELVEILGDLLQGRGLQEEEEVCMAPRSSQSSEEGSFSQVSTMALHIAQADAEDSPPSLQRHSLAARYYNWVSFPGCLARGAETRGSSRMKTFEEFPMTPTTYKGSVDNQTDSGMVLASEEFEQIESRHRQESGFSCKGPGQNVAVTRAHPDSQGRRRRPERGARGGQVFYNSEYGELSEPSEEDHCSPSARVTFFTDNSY

HASPIN (GSG2) = HASPIN (GSG2) (Homo sapiens (Human), UniProt Q8TF76); test: KINOMEscan scanMAX; type: binding; settings: 2000 nM; read-out: Percent Control
[1] = target: JAK1(JH1domain-catalytic) (Homo sapiens (Human), UniProt P23458); test: KINOMEscan scanMAX; type: binding; settings: 2000 nM; read-out: Percent Control
[2] = target: JAK2(JH1domain-catalytic) (Homo sapiens (Human), UniProt O60674); test: KINOMEscan scanMAX; type: binding; settings: 2000 nM; read-out: Percent Control
KIT-autoinhibited = KIT-autoinhibited (Homo sapiens (Human), UniProt P10721); test: KINOMEscan scanMAX; type: binding; settings: 2000 nM; read-out: Percent Control
LYN = LYN (Homo sapiens (Human), UniProt P07948); test: KINOMEscan scanMAX; type: binding; settings: 2000 nM; read-out: Percent Control
Sequence of LYN (P07948 whole entry): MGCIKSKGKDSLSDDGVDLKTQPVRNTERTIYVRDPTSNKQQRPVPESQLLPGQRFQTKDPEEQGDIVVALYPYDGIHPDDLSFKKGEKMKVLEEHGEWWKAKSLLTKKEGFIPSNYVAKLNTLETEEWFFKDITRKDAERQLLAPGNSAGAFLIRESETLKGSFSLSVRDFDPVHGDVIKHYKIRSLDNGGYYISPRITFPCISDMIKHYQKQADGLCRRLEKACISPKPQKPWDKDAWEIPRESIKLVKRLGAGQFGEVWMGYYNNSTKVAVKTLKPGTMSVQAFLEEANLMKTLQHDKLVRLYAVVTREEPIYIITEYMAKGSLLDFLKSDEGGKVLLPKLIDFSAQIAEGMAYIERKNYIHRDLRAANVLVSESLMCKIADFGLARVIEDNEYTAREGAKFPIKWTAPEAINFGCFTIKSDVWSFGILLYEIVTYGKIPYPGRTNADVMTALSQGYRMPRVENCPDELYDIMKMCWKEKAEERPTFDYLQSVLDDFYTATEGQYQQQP

MARK4 = MARK4 (Homo sapiens (Human), UniProt Q96L34); test: KINOMEscan scanMAX; type: binding; settings: 2000 nM; read-out: Percent Control
MLCK (MYLK3) = MLCK (MYLK3) (Homo sapiens (Human), UniProt Q32MK0); test: KINOMEscan scanMAX; type: binding; settings: 2000 nM; read-out: Percent Control
MYLK2 = MYLK2 (Homo sapiens (Human), UniProt Q9H1R3); test: KINOMEscan scanMAX; type: binding; settings: 2000 nM; read-out: Percent Control
MYLK4 = MYLK4 (Homo sapiens (Human), UniProt Q86YV6); test: KINOMEscan scanMAX; type: binding; settings: 2000 nM; read-out: Percent Control
NEK4 = NEK4 (Homo sapiens (Human), UniProt P51957); test: KINOMEscan scanMAX; type: binding; settings: 2000 nM; read-out: Percent Control
NEK5 = NEK5 (Homo sapiens (Human), UniProt Q6P3R8); test: KINOMEscan scanMAX; type: binding; settings: 2000 nM; read-out: Percent Control
Sequence of NEK5 (Q6P3R8 whole entry): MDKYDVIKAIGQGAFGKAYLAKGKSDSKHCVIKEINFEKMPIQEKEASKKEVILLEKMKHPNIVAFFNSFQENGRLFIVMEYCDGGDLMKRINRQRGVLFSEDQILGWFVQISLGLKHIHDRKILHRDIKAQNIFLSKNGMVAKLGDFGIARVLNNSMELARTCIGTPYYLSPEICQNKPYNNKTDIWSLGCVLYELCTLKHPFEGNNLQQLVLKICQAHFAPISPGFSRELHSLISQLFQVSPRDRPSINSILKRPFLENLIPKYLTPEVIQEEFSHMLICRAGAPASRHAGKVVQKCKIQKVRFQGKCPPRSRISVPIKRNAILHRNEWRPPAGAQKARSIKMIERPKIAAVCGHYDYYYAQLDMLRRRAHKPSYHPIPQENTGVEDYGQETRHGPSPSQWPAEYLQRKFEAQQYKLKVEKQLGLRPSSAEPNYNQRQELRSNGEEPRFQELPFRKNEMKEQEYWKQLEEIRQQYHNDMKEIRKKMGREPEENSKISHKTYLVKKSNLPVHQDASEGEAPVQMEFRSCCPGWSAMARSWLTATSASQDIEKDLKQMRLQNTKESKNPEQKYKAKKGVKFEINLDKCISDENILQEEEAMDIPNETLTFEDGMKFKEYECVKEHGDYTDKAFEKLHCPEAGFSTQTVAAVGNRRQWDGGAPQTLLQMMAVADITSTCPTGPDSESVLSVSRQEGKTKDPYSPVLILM

NEK9 = NEK9 (Homo sapiens (Human), UniProt Q8TD19); test: KINOMEscan scanMAX; type: binding; settings: 2000 nM; read-out: Percent Control
PIK3CA(H1047Y) = PIK3CA(H1047Y) (Homo sapiens (Human), UniProt P42336, H1047Y); test: KINOMEscan scanMAX; type: binding; settings: 2000 nM; read-out: Percent Control
PIM1 = PIM1 (Homo sapiens (Human), UniProt P11309); test: KINOMEscan scanMAX; type: binding; settings: 2000 nM; read-out: Percent Control
Sequence of PIM1 (P11309 whole entry): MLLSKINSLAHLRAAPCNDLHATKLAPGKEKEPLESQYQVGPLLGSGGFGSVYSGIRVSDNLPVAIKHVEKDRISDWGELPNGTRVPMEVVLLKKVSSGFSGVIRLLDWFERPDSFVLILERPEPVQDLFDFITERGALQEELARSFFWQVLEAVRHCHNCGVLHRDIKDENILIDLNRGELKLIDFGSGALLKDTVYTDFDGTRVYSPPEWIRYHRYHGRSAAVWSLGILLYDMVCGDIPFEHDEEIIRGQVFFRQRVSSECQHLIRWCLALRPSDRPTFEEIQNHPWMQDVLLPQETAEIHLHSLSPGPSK

PKMYT1 = PKMYT1 (Homo sapiens (Human), UniProt Q99640); test: KINOMEscan scanMAX; type: binding; settings: 2000 nM; read-out: Percent Control
[3] = target: PKNB(M.tuberculosis) (pknB) (Mycobacterium tuberculosis (strain ATCC 25618 / H37Rv), UniProt P9WI81); test: KINOMEscan scanMAX; type: binding; settings: 2000 nM; read-out: Percent Control
PLK1 = PLK1 (Homo sapiens (Human), UniProt P53350); test: KINOMEscan scanMAX; type: binding; settings: 2000 nM; read-out: Percent Control
Sequence of PLK1 (P53350 whole entry): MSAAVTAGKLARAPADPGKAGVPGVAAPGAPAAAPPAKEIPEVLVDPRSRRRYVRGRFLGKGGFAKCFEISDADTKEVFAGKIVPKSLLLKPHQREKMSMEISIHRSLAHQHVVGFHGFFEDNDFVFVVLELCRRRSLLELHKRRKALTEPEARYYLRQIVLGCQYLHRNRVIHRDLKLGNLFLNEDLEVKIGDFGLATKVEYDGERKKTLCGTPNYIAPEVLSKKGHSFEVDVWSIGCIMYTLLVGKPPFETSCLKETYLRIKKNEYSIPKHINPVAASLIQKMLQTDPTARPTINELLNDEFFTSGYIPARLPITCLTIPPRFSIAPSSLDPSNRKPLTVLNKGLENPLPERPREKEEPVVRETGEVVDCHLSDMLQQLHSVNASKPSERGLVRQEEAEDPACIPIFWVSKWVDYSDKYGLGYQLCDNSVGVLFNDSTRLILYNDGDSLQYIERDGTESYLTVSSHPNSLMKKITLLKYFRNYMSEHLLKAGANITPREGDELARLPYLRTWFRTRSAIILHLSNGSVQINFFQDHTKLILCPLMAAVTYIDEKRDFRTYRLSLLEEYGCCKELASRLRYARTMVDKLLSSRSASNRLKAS

PLK4 = PLK4 (Homo sapiens (Human), UniProt O00444); test: KINOMEscan scanMAX; type: binding; settings: 2000 nM; read-out: Percent Control
PRKCI = PRKCI (Homo sapiens (Human), UniProt P41743); test: KINOMEscan scanMAX; type: binding; settings: 2000 nM; read-out: Percent Control
Sequence of PRKCI (P41743 whole entry): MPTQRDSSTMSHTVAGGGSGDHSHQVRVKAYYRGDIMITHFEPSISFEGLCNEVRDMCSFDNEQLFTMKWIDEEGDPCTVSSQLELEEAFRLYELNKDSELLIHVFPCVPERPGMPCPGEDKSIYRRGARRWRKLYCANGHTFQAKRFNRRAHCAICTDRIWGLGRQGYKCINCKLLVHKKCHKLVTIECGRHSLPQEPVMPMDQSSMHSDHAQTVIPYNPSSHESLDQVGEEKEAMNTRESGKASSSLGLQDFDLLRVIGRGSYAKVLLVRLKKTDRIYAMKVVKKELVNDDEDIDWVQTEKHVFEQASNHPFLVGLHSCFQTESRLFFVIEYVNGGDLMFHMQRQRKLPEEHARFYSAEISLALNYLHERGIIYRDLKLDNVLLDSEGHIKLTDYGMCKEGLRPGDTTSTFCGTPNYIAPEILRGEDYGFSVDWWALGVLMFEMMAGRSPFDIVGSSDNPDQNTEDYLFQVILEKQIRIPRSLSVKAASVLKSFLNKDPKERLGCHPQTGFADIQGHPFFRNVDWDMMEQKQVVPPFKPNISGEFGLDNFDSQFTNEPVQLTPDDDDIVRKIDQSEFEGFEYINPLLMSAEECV

SRPK3 = SRPK3 (Homo sapiens (Human), UniProt Q9UPE1); test: KINOMEscan scanMAX; type: binding; settings: 2000 nM; read-out: Percent Control
TRKC (NTRK3) = TRKC (NTRK3) (Homo sapiens (Human), UniProt Q16288); test: KINOMEscan scanMAX; type: binding; settings: 2000 nM; read-out: Percent Control
[4] = Mouse pharmacokinetics, oral, serum; type: in vivo, mice
Method: To measure pharmacokinetics (PK), Senexin C dissolved in 5% Dextrose was administered orally (p.o.) to female FVB mice at 30 mg/kg. Blood samples were collected at different time points (5 mice per time point) and Senexin C concentration in the serum was measured by LC/MS/MS.

HL60-Luc cells = test: HL60-Luc proliferation assay (BLI); type: cell-based; settings: HL-60-Luc, 168 h; 7 days
Method: The anti-leukemic activity was also evaluated with a HL60 assay. The HL60 assay was performed by a similar procedure as MV4-11 assay. A derivative of the HL-60 leukemia cell line was generated to express Luciferase and ZsGreen by lentiviral infection with pHIV-Luc-ZsGreen, to enable leukemia growth analysis by bioluminescence imaging (BLI). The initial Luciferase-ZsGreen transduced cell population was sorted for ZsGreen positivity with fluorescence activated cell sorting and individual clones were tested for luciferase expression. […] The HL-60 assay was performed in 96-well plates by treating the HL60-Luc cells with testing compounds at different concentrations for 7 days, followed by BLI to quantify the effects of test articles on cell proliferation.

MAP4K2 = MAP4K2 (Homo sapiens (Human), UniProt Q12851); test: DiscoverX Kd assay

With `CN1CCN(C(=O)c2ccc3cc(CCNc4ccnc5ccc(C#N)cc45)ccc3c2)CC1` [compound 6148, 4-((2-(6-(4-methylpiperazine-1-carbonyl)naphthalen-2-yl)ethyl)amino)quinoline-6-carbonitrile] as the molecule, how does the remaining binding at 2 µM (ABL1-nonphosphorylated) read?
Its remaining binding at 2 µM is 71%.

And the remaining binding at 2 µM (BRSK2)?
Its remaining binding at 2 µM is 96%.

And the remaining binding at 2 µM (CAMK1G)?
Its remaining binding at 2 µM is 92%.

What about the remaining binding at 2 µM (CSNK1G1) of the same molecule?
The remaining binding at 2 µM was 100%.

What about the remaining binding at 2 µM (DAPK1) of the same molecule?
The remaining binding at 2 µM was 100%.

What about the remaining binding at 2 µM (DAPK3) of the same molecule?
The remaining binding at 2 µM was 95%.

What about the remaining binding at 2 µM (ERBB2) of the same molecule?
The remaining binding at 2 µM was 73%.

What about the remaining binding at 2 µM (ERK2 (MAPK1)) of the same molecule?
The remaining binding at 2 µM was 93%.

What about the remaining binding at 2 µM (ERK8 (MAPK15)) of the same molecule?
Its remaining binding at 2 µM is 76%.

And the remaining binding at 2 µM (FES)?
Its remaining binding at 2 µM is 81%.

And the remaining binding at 2 µM (FLT4)?
Its remaining binding at 2 µM is 97%.

What about the remaining binding at 2 µM (HASPIN (GSG2)) of the same molecule?
Its remaining binding at 2 µM is 29%.

And the remaining binding at 2 µM [1]?
The remaining binding at 2 µM was 94%.

And the remaining binding at 2 µM [2]?
The remaining binding at 2 µM was 56%.

What about the remaining binding at 2 µM (KIT-autoinhibited) of the same molecule?
The remaining binding at 2 µM was 88%.

What about the remaining binding at 2 µM (LYN) of the same molecule?
Its remaining binding at 2 µM is 88%.

And the remaining binding at 2 µM (MARK4)?
The remaining binding at 2 µM was 78%.

What about the remaining binding at 2 µM (MLCK (MYLK3)) of the same molecule?
Its remaining binding at 2 µM is 100%.

What about the remaining binding at 2 µM (MYLK2) of the same molecule?
Its remaining binding at 2 µM is 91%.

And the remaining binding at 2 µM (MYLK4)?
Its remaining binding at 2 µM is 98%.

What about the remaining binding at 2 µM (NEK4) of the same molecule?
The remaining binding at 2 µM was 60%.

What about the remaining binding at 2 µM (NEK5) of the same molecule?
The remaining binding at 2 µM was 97%.

What about the remaining binding at 2 µM (NEK9) of the same molecule?
The remaining binding at 2 µM was 97%.

What about the remaining binding at 2 µM (PIK3CA(H1047Y)) of the same molecule?
Its remaining binding at 2 µM is 91%.

What about the remaining binding at 2 µM (PIM1) of the same molecule?
Its remaining binding at 2 µM is 62%.

And the remaining binding at 2 µM (PKMYT1)?
The remaining binding at 2 µM was 100%.

And the remaining binding at 2 µM [3]?
The remaining binding at 2 µM was 93%.

And the remaining binding at 2 µM (PLK1)?
The remaining binding at 2 µM was 63%.

What about the remaining binding at 2 µM (PLK4) of the same molecule?
Its remaining binding at 2 µM is 90%.

And the remaining binding at 2 µM (PRKCI)?
The remaining binding at 2 µM was 89%.

And the remaining binding at 2 µM (SRPK3)?
The remaining binding at 2 µM was 96%.

What about the remaining binding at 2 µM (TRKC (NTRK3)) of the same molecule?
The remaining binding at 2 µM was 69%.

And the “Increase of half-time, oral vs i.p.” value ([4]; female, FVB, mouse, in vivo)?
The value was 4-5 times.

What about the half-time ([4]; p.o. 30 mg/kg, female FVB mice) of the same molecule?
Its half-time is 3.8 h.

What about the IC50 (HL60-Luc cells) of the same molecule?
The IC50 was 114 nM.

And the Kd (MAP4K2)?
The Kd was 940 nM.
